Paper PMC12348835, “Design, Docking Analysis, and Structure–Activity Relationship of Ferrocene-Modified Tyrosine Kinase Inhibitors: Insights into BCR-ABL Interactions” (Molecules, 2025)

Key:
[1] = test system: MDA-MB-231; set-up: method as in doi:10.2533/chimia.2007.716; details: hormone-independent breast cancer cells; cited from earlier work
[2] = MTT cell viability assay, normal fibroblasts CCL-1; type: cell-based, murine; details: mouse, CCL-1 normal fibroblast cells, non-malignant fibroblasts, ± standard deviation
Experimental: (§1) Cell viability was determined using the MTT colorimetric assay. […] Statistical significance was determined at p ≤ 0.05.

[3] = test system: K-562; test: MTT cell viability assay, K-562; type: cell-based, human; details: 72 h, ± standard deviation
Experimental: as §1

[4] = test system: LAMA-84; test: MTT cell viability assay, LAMA-84; type: cell-based, human; details: 72 h, ± standard deviation
Experimental: as §1

[5] = test system: AR-230; test: MTT cell viability assay, AR-230; type: cell-based, human; details: 72 h, ± standard deviation
Experimental: as §1

[6] = test system: CCL-1; test: MTT cell viability assay, normal fibroblasts CCL-1; type: cell-based, murine; details: 72 h, non-malignant fibroblasts, ± standard deviation
Experimental: as §1

[7] = test system: BV-173; test: MTT cell viability assay, BV-173; type: cell-based, human; details: 72 h, ± standard deviation
Experimental: as §1

## CC/C(=C(\c1ccc(O)cc1)c1ccc(OCCN(C)C)cc1)c1ccccc1 [Hydroxy-tamoxifen]
[1]
  IC50: 30 µM

## Cc1ccc(NC(=O)c2ccc(CN3CCN(C)CC3)cc2)cc1Nc1nccc(-c2cccnc2)n1 [imatinib, reference compound]
[2]
  IC50 at 72 h: > 200 µM

## Cc1cn(-c2cc(NC(=O)c3ccc(C)c(Nc4nccc(-[c-]5cccc5)n4)c3)cc(C(F)(F)F)c2)cn1.[Fe+2].c1cc[cH-]c1 [Compound 9, 4-Methyl-N-(3-(4-methyl-1H-imidazol-1-yl)-5-(trifluoromethyl)phenyl)-3-((4-ferrocenylpyrimidin-2-yl)amino)benzamide]
[3]
  IC50: 25.9 ± 2.9 µM
[4]
  IC50: 25.4 ± 2.4 µM
[5]
  IC50: 144 ± 10.6 µM
[6]
  IC50: > 200 µM
[7]
  IC50: 33.6 ± 2.3 µM

## Cc1ccc(NC(=O)[c-]2cccc2)cc1Nc1nccc(-c2cccnc2)n1.[Fe+2].c1cc[cH-]c1 [Compound 14, N-(4-Methyl-3-((4-(pyridin-3-yl)pyrimidin-2-yl)amino)phenyl)ferrocenecarboxamide]
[3]
  IC50: > 200 µM
[4]
  IC50: 27.3 ± 1.8 µM
[5]
  IC50: 5.1 ± 1.3 µM
[6]
  IC50: > 200 µM
[7]
  IC50: 17.9 ± 3.1 µM

## Cc1ccc(NC(=O)c2ccc(CN3CCN(C)CC3)cc2)cc1Nc1nccc(-[c-]2cccc2)n1.[Fe+2].c1cc[cH-]c1 [Compound 6, N-(4-Methyl-3-((4-ferrocenylpyrimidin-2-yl)amino)phenyl)-4-((4-methylpiperazin-1-yl)methyl)benzamide]
[3]
  IC50: 29.9 ± 3.1 µM
[4]
  IC50: 25.4 ± 2.9 µM
[5]
  IC50: 5.9 ± 0.2 µM
[6]
  IC50: 55.7 ± 9.5 µM
[7]
  IC50: 33.6 ± 2.1 µM

## Cc1ccc(C(=O)N[c-]2cccc2)cc1Nc1nccc(-c2cccnc2)n1.[Fe+2].c1cc[cH-]c1 [Compound 18, N-Ferrocenyl-4-methyl-3-((4-(pyridin-3-yl)pyrimidin-2-yl)amino)benzamide]
[3]
  IC50: > 200 µM
[4]
  IC50: 26.8 ± 3.2 µM
[5]
  IC50: 5.1 ± 0.9 µM
[6]
  IC50: 60.2 ± 8.3 µM
[7]
  IC50: 15.1 ± 2.9 µM

## CCC(=C(c1ccc(O)cc1)c1ccc(OCCCN(C)C)cc1)[c-]1cccc1.[Fe+2].c1cc[cH-]c1 [Hydroxy-ferrocifen]
[1]
  IC50: 0.5 µM
